Data as given in publication PMC5847527, “Identification of a novel 2-oxindole fluorinated derivative as in vivo antitumor agent for prostate cancer acting via AMPK activation” (Scientific Reports, 2018).

Tests used:
AMPK [1] = assay: AMPK and ACC phosphorylation by Western blot in DU145 cells; assay type: cell-based, human; conditions: 25 µM, 1 hour
Method: (§1) Figure 2 Effect of 2-oxindole fluorinated derivatives on AMPK activity in prostate cancer cells. (A) PC-3, DU145 and LNCaP cells were treated with 25 µM of the selected 2-oxindole fluorinated derivatives for 1 hour. Levels of the phosphorylated AMPK (pAMPK), phosphorylated ACC (pACC) and their total forms were determined by Western blot. Upper panel, a representative Western blot of three different experiments. β-tubulin (β-Tub) serves as a loading control. […] Lower panels, densitometric analyses of bands represented as the mean of the ratio pAMPK/AMPK or pACC/ACC ± SD of three different experiments. *p < 0.05 compared with the controls by one-way ANOVA followed by Fisher’s LSD test; ^#p < 0.05 compared with 2-oxindole fluorinated derivates or with the AMPK activators AMP or A769662 by one-way ANOVA followed by Tukey test.
(§2) Similar results were obtained although AMPK stimulation by compound 8c was not so strong (Fig. 2A). […]
(§3) Cells were lysed in Lysis buffer (50 mM Tris pH 7.4, 0.8 M NaCl, 5 mM MgCl2, 0.1% Triton X-100) containing Protease Inhibitor and Phosphatase inhibitor Cocktails (Roche, Basel, Switzerland). Protein concentrations were measured by BioRad™ protein assay kit (Richmond, CA, USA). […] Films were analyzed by densitometry. […]

AMPK [2] = assay: AMPK and ACC phosphorylation by Western blot in LNCaP cells; assay type: cell-based, human; conditions: 25 µM, 1 hour
Method: as §1, §2, §3

PC-3 cells = assay: Cell cycle analysis by flow cytometry (Propidium Iodide), PC-3; assay type: cell-based, human; conditions: PC-3, 24 h, 25 μM and 50 μM tested (concentration of this value not stated)
Method: For that, we treated PC-3 and LNCaP cells with 25 μM and 50 μM of compound 8c for 24 h and performed cell cycle analysis by flow cytometry using Propidium Iodide (PI). […] It is worthy to note that when PC-3 cells were treated with compound 8c, 80% of cells were in subG0 phase (Fig. 4A).
(§4) Figure 4 Cell Cycle analysis in 8c-treated prostate cancer cells. (A) PC-3 and LNCaP cells were treated with compound 8c for 24 hours and cell cycle analysis was analyzed by flow cytometry using Propidium Iodide (PI). Percentage of cells in subG0, G1, S, and G2/M phases is indicated in the histogram. (B) Levels of Cyclin D1, p-p53, p53, p21 and cleaved Caspase 3 (17 kDa fragment) were determined by Western blot. Upper panel, representative Western blot of two different experiments. β-tubulin (β-Tub) serves as a loading control. Lower panel, the densitometric analyses of bands represented as the mean ± SD of the two different experiments. *p < 0.05 and **p < 0.01 compared with the control group by the Student’s t-test.
Flow cytometry was used to detect the distribution of cell cycle. After being cultivated with the treatment, 10^5 cells in 35 mm culture dish were harvested in 0.35% trypsin, collected and fixed with 70% cold ethanol at 4 °C for 1 h. Then, cells were centrifuged at 1500 g for 5 min and incubated in 0.5 ml PBS containing 0.1 mg/ml RNase for 30 min at 37 °C. […]

[3] = tested on: cleaved Caspase 3 (17 kDa fragment); assay: Cleaved Caspase 3 level by Western blot in prostate cells; assay type: cell-based, human
Method: as §4, with “Lower panel, the densitometric analyses of bands represented as the mean ± SD of the two different experiments. *p < 0.05 and **p < 0.01 compared with the control group by the Student’s t-test.” left out
Cyclin D1 activity is modulated by several inhibitors such as p21 which negatively regulate cell cycle progression by interacting with cyclin dependent kinases (cdks). […] To further study the role of compound 8c in cell cycle, we determined the expression of p21, p53 and the levels of cleaved caspase 3 in the prostate cells. P53 was only determined in LNCaP cells since PC-3 cells are p53-negative[40].
as §3

[4] = biological target: T1, human recombinant AMPK isoform α1β1γ1 (Homo sapiens, UniProt P54619+Q13131+Q9Y478); assay: In vitro AMPK enzymatic assay (AMARA peptide, Delfia), α1β1γ1; assay type: biochemical; conditions: 30 μM, p < 0.001
T1 construct: purchased Invitrogen
T1 sequence (Q13131 whole entry, canonical isoform): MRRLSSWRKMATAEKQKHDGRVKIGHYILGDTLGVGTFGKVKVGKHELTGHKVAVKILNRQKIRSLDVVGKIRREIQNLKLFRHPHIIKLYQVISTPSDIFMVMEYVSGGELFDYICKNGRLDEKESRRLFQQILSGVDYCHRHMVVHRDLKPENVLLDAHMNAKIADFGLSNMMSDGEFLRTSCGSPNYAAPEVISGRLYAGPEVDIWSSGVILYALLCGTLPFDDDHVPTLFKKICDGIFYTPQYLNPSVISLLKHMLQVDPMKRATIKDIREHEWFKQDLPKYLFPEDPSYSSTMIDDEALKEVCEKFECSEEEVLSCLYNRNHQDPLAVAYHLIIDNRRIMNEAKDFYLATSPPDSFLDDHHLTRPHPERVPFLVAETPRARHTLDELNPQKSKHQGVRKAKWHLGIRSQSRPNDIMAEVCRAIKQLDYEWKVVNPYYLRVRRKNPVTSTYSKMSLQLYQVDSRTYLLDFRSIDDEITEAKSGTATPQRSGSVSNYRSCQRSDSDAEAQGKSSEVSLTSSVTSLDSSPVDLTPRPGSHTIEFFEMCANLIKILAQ
T1 sequence (Q9Y478 whole entry, canonical isoform): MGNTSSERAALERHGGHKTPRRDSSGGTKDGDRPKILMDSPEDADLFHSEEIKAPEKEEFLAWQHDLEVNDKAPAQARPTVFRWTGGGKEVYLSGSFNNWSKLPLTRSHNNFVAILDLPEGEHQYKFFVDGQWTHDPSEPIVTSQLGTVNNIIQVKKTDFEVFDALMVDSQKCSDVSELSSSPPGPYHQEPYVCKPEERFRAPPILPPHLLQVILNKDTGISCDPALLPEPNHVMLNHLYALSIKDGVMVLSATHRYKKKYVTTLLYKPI
T1 sequence (P54619 whole entry, canonical isoform): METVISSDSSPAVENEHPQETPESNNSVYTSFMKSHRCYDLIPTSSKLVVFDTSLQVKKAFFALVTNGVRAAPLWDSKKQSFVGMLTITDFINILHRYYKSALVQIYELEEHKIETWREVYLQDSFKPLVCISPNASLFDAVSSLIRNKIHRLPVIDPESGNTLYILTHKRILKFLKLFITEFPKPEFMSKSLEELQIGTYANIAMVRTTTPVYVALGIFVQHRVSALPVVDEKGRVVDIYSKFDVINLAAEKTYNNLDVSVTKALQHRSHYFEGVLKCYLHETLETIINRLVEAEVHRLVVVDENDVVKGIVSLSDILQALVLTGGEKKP
Method: This assay evaluated the ability of the compound to activate AMPK and in turn phosphorylate the synthetic substrate peptide [sequence].
Data are the mean ± S.D. of four experiments. **p < 0.01 and ***p < 0.001 compared by the Student’s t-test.
The effect of compounds in the in vitro human recombinant AMPK activity assay was measured by monitoring phosphorylation of the “AMARA” peptide using Delfia technology. […] Final concentration of DMSO was 1%. Reactions were initiated by the addition of AMPK (0.1U). Following mixing, the plates were incubated for 30 min at room temperature. Enzyme activity was assayed by using an anti-phospho-serine antibody to measure the quantity of phosphate incorporated into the AMARAA peptide.

## O=C1Nc2ccccc2C1(F)Cc1ccc(-c2ccccc2)o1 (centres unmarked) [Compound 8c, 3-fluoro-3-((5-phenylfuran-2-yl)methyl)indolin-2-one]
AMPK [1]
  AMPK phosphorylation (pAMPK/AMPK): stimulate AMPK in DU145 cells
AMPK [2]
  AMPK phosphorylation (pAMPK/AMPK): notably activated AMPK
PC-3 cells
  cells in subG0 phase: 80%
[3]
  cleaved caspase 3 (17 kDa fragment): increase in cleaved caspase 3
[4]
  increase of AMPK α1β1γ1 activity: 75%
